ChEMBL document CHEMBL1777748 (Bioorg Med Chem Lett, 2011)

How the values were obtained:
[1] = biological target: T1, Prostaglandin D2 receptor 2 (Homo sapiens, UniProt Q9Y5Y4); experiment: Displacement of [3H]-PGD2 from CRTh2 receptor by scintillation proximity assay
T1 sequence (Q9Y5Y4 whole entry): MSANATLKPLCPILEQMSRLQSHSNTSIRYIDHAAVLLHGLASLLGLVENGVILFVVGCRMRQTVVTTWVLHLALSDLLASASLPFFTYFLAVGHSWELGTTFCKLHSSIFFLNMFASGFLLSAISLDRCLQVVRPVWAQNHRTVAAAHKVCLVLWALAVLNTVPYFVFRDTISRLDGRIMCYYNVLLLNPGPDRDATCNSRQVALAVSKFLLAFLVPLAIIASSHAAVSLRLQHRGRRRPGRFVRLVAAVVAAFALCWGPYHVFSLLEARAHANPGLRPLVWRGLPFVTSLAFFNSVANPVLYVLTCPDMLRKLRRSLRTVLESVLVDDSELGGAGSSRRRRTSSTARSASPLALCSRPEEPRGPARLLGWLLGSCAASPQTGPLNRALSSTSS

[2] = Intrinsic clearance in rat hepatocytes assessed per 1 x 10^6 cells
[3] = Intrinsic clearance in human liver microsomes
[4] = Lipophilicity, log D of the compound at pH 7.4; conditions: buffer

| IC50 [1] [nM] | hepatocyte CLint [2] [µL/min/1e6 cells] | microsomal CLint ([3]; liver microsomes) [µL/min/mg] | logD [4] | microsomal CLint ([3]; microsomes) [µL/min/mg] | Structure (SMILES) |
| --- | --- | --- | --- | --- | --- |
| 0.4 | < 3 | < 3 | – | – | Cc1cc(N(C)S(C)(=O)=O)ccc1-c1cc(C(F)(F)F)ccc1OCC(=O)O |
| 293 | – | – | – | – | CCS(=O)(=O)c1ccc(-c2cc(Cl)ccc2OCC(=O)O)c(C(F)(F)F)c1 |
| 0.6 | < 3 | < 3 | 0 | – | CCS(=O)(=O)c1ccc(-c2cc(C(F)(F)F)ccc2O[C@H](C)C(=O)O)c(Cl)c1 |
| 0.6 | < 5 | < 3 | – | – | C[C@@H](Oc1ccc(C(F)(F)F)cc1-c1cccc(C#N)c1)C(=O)O |
| 56 | < 3 | 12 | – | – | CCS(=O)(=O)c1cccc(-c2cc(C(F)(F)F)ccc2OCC(=O)O)c1 |
| 2 | 20 | – | 1.4 | < 3 | O=C(O)COc1ccc(C(F)(F)F)cc1-c1ccccc1-c1ccccc1 |
| 7.9 | 4 | – | – | < 3 | CCS(=O)(=O)c1ccc(-c2cc(Cl)ccc2OCC(=O)O)c(F)c1 |
| 8.9 | – | – | – | – | CCSc1ccc(-c2cc(C(F)(F)F)ccc2OCC(=O)O)cc1 |
| 0.2 | – | – | – | – | CS(=O)(=O)c1ccc(-c2cc(C(F)(F)F)ccc2OCC(=O)O)c(Cl)c1 |
| – | 13 | – | – | < 3 | CCc1ccc(OCC(=O)O)c(-c2ccc(S(C)(=O)=O)cc2)c1 |
| 19 | < 3 | 7 | – | – | CCS(=O)(=O)c1ccc(-c2cc(Cl)ccc2OCC(=O)O)cc1 |
| 178 | – | – | 0.3 | – | CCC(Oc1ccc(C(F)(F)F)cc1-c1ccc(S(=O)(=O)CC)cc1C)C(=O)O (stereo not given) |
| 0.3 | < 5 | < 3 | – | – | CCS(=O)(=O)c1ccc(-c2cc(C(F)(F)F)ccc2OCC(=O)O)c(Cl)c1 |
| 4.1 | – | – | – | – | CCS(=O)(=O)c1ccc(-c2cc(Cl)ccc2OCC(=O)O)c(C)c1 |
| 891 | – | – | – | – | CCS(=O)(=O)c1ccc(-c2cc(C(F)(F)F)ccc2OCc2nnn[nH]2)c(C)c1 |
| 0.8 | < 3 | 13 | – | – | CN(c1ccc(-c2cc(C(F)(F)F)ccc2OCC(=O)O)cc1)S(C)(=O)=O |

Continued, compound first:

| Structure (SMILES) | IC50 [1] [nM] | hepatocyte CLint [2] [µL/min/1e6 cells] | microsomal CLint ([3]; liver microsomes) [µL/min/mg] | logD [4] | microsomal CLint ([3]; microsomes) [µL/min/mg] |
| --- | --- | --- | --- | --- | --- |
| N#Cc1ccc(-c2cc(C(F)(F)F)ccc2OCC(=O)O)cc1 | 126 | – | – | – | – |
| N#Cc1cccc(-c2cc(C(F)(F)F)ccc2OCC(=O)O)c1 | < 0.4 | < 3 | < 3 | 0.1 | – |
| CCS(=O)(=O)c1ccc(-c2cc(C(F)(F)F)ccc2O[C@H](C)C(=O)O)c(C)c1 | 1.6 | 23 | < 3 | – | – |
| CCCCOc1ccccc1-c1cc(C(F)(F)F)ccc1OCC(=O)O | 10 | 9 | 6 | – | – |
| CN(c1ccc(-c2cc(F)ccc2OCC(=O)O)c(Cl)c1)S(C)(=O)=O | 2.2 | – | – | – | – |
| CN(c1ccc(-c2cc(C(F)(F)F)ccc2OCC(=O)O)c(Cl)c1)S(C)(=O)=O | 0.1 | – | – | – | – |
| N#Cc1ccc(F)c(-c2cc(C(F)(F)F)ccc2OCC(=O)O)c1 | 0.2 | < 3 | – | – | < 4 |
| CCS(=O)(=O)c1ccc(-c2cc(C(F)(F)F)ccc2CCC(=O)O)c(C)c1 | 2.5 | 25 | < 4 | – | – |
| CCS(=O)(=O)c1ccc(-c2cc(C(F)(F)F)ccc2O[C@@H](C)C(=O)O)c(C)c1 | 355 | 10 | – | – | – |
| CCS(=O)(=O)c1ccc(-c2cc(Cl)ccc2OCC(=O)O)c(Cl)c1 | 1.5 | < 3 | 7 | – | – |
| CS(=O)(=O)c1ccc(-c2cc(Cl)ccc2OCC(=O)O)c(Cl)c1 | 0.6 | 5 | 10 | – | – |
| O=C(O)COc1ccc(Cl)cc1-c1ccccc1 | 251 | – | – | – | – |
| O=C(O)COc1ccc(C(F)(F)F)cc1-c1ccc2c(c1)CCS2(=O)=O | 126 | 13 | 6 | – | – |
| CCS(=O)(=O)c1ccc(-c2cc(C(F)(F)F)ccc2OC(C)(C)C(=O)O)c(C)c1 | 3980 | – | – | – | – |
